In US20240082416A1, “AMATOXIN ANALOGS AND USES THEREOF” (THE UNIVERSITY OF BRITISH COLUMBIA, priority 2020, published 2024) one finds viability data, which are given here for four compounds.

The structures appear in SMILES notation. Starred links: 1 amine or outer side, 2 acyl side, 3 side chain; linkers in the order of their positions; H or OH if unused. Positions of bridges follow the written chain, without caps; N, C: chain ends. Non-standard residues stand in square brackets, D forms with d. Residues, ends and D or L forms follow the SMILES beside them. Trp(2-yl) = O=C([C@H](Cc1c([*:3])[nH]c2ccccc12)N[*:1])[*:2]; Pro(trans-4-guanidino) = N=C(N)N[C@H]1CN[C@H](C(=O)O)C1; Pro(4R-SH) = O=C([C@@H]1C[C@@H](S[*:3])CN1[*:1])[*:2]; Ile(4R-OH,5-OH) = C[C@H]([C@H](N)C(=O)O)[C@@H](O)CO; X1 = N#C[C@@H]1C[C@@H](C(=O)[*:2])N([*:1])C1; Pro(4R-NH2) = N[C@H]1CN[C@H](C(=O)O)C1

This data set is described as follows: Cell viability assay (BrdU incorporation) on HEK293-OATP1B3 cells. The data set is classed as cell-based, human. The following applies: human, HEK293 cells overexpressing OATP1B3 (HEK293-OATP1B3); highest used concentration of 1 μM; HEK293-OATP1B3 cells. How it is done:
. HEK293 and HEK-OATP1B3 cells were plated at 2.5×10^3 cells/well in a 1:1 mixture of Ham's F12 with DMEM containing 10% charcoal-stripped fetal calf serum (FCS) onto poly-D-lysine-coated 96-well plates and grown for 24 hours. Subsequently, cells were incubated with amanitin analogs at 8 different concentrations (1×10^−6 M to 1.28×10^−11 M, serial 1:5 dilutions). Following 96 h of drug exposure, cell viability was determined by a BrdU incorporation assay (Cell Proliferation ELISA, BrdU, Roche) and chemiluminescence was measured using a FLUOstar Optima plate reader (BMG LABtech). Data analysis was performed with GraphPad Prism 8 (GraphPad Software, Inc., La Jolla, CA) software to plot curve fits.

As usually defined, the viability is a per cent measure of how many cells are alive, often set against a control. A low value points to a greater loss of cells. The compound `CC[C@H](C)[C@@H]1NC(=O)CNC(=O)[C@@H]2Cc3c([nH]c4ccccc34)SC[C@H](NC(=O)CNC1=O)C(=O)N[C@@H](CC(N)=O)C(=O)N1C[C@H](C#N)C[C@H]1C(=O)N[C@@H]([C@@H](C)[C@@H](O)CO)C(=O)N2` [Compound 4, CN-Pro-amanitin] (cyclo(CN[X1][Ile(4R-OH,5-OH)][Trp(2-yl)]GIG); thioether 1-5) displayed a viability at 96 h, 1 µM of 43%.
Consider `CC[C@H](C)[C@@H]1NC(=O)CNC(=O)[C@@H]2Cc3c([nH]c4ccccc34)SC[C@H](NC(=O)CNC1=O)C(=O)N[C@@H](CC(N)=O)C(=O)N1C[C@H](S)C[C@H]1C(=O)N[C@@H]([C@@H](C)[C@@H](O)CO)C(=O)N2` [Compound 5, SH-Pro-amanitin] (cyclo(CN[Pro(4R-SH)][Ile(4R-OH,5-OH)][Trp(2-yl)]GIG); thioether 1-5), for which the viability at 96 h, 1 µM is 50%.
As for `CC[C@H](C)[C@@H]1NC(=O)CNC(=O)[C@@H]2Cc3c([nH]c4ccccc34)SC[C@H](NC(=O)CNC1=O)C(=O)N[C@@H](CC(N)=O)C(=O)N1C[C@H](N)C[C@H]1C(=O)N[C@@H]([C@@H](C)[C@@H](O)CO)C(=O)N2` [Compound 6, NH2-Pro-amanitin] (cyclo(CN[Pro(4R-NH2)][Ile(4R-OH,5-OH)][Trp(2-yl)]GIG); thioether 1-5), the viability at 96 h, 1 µM worked out at 33%.
`CC[C@H](C)[C@@H]1NC(=O)CNC(=O)[C@@H]2Cc3c([nH]c4ccccc34)SC[C@H](NC(=O)CNC1=O)C(=O)N[C@@H](CC(N)=O)C(=O)N1C[C@H](NC(=N)N)C[C@H]1C(=O)N[C@@H]([C@@H](C)[C@@H](O)CO)C(=O)N2` [Compound 7, Gdn-Pro-amanitin] (cyclo(CN[Pro(trans-4-guanidino)][Ile(4R-OH,5-OH)][Trp(2-yl)]GIG); thioether 1-5) came in with a viability at 96 h, 1 µM of 86%.
